From PubChem BioAssay AID1963442 (Molecular Pharmacology Branch, DTP, NCI, 2024)
pIC50: −log10 of the molar value.

Tested on: MPNST complex spheroid with HUVEC/MSC, growth, % test/control
Assay: Anticancer human tumor MPNST cell line growth inhibition [Asc];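 further: compounds left on spheroids for seven days before reading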
Conditions: for pIC50: curve of first compound; for viability, T/C: stronger effect = lower value
Method in brief: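 Complex spheroids combining tumor cells with HUVEC endothelial cells and human MSCs, at 37 degrees C, 5% CO2; agents tested alone or combined, half-log dilutions from at or near clinical Cmax, or 10 microM if Cmax unknown.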

[1] = second compound 0.03 µM, first compound 0.00316 µM
[2] = second compound 0.03 µM, first compound 0.01 µM
[3] = second compound 0.03 µM, first compound 0.0316 µM
[4] = second compound 0.03 µM, first compound 0.1 µM
[5] = second compound 0.0949 µM, first compound 0.00316 µM
[6] = second compound 0.0949 µM, first compound 0.01 µM
[7] = second compound 0.0949 µM, first compound 0.0316 µM
[8] = second compound 0.0949 µM, first compound 0.1 µM
[9] = second compound 0.3 µM, first compound 0.00316 µM
[10] = second compound 0.3 µM, first compound 0.01 µM
[11] = second compound 0.3 µM, first compound 0.0316 µM
[12] = second compound 0.3 µM, first compound 0.1 µM
[13] = second compound 0.949 µM, first compound 0.00316 µM
[14] = second compound 0.949 µM, first compound 0.01 µM
[15] = second compound 0.949 µM, first compound 0.0316 µM
[16] = second compound 0.949 µM, first compound 0.1 µM
[17] = second compound 3 µM, first compound 0.00316 µM
[18] = second compound 3 µM, first compound 0.01 µM
[19] = second compound 3 µM, first compound 0.0316 µM
[20] = second compound 3 µM, first compound 0.1 µM

C=CC(=O)N1CCN(c2nc(=O)n(-c3c(C)ccnc3C(C)C)c3nc(-c4c(O)cccc4F)c(F)cc23)C(C)C1 (configuration not stated) + CNC(C)C(=O)NC1CN(S(=O)(=O)c2cccc(S(=O)(=O)N3CCC4CCC(C(=O)NC(c5ccccc5)c5ccccc5)N4C(=O)C(NC(=O)C(C)NC)C3)c2)CCC2CCC(C(=O)NC(c3ccccc3)c3ccccc3)N2C1=O
pIC50 (second compound 0.00316 µM): < 5.00 | pIC50 (second compound 0.01 µM): < 5.00 | pIC50 (second compound 0.0316 µM): < 5.00 | pIC50 (second compound 0.1 µM): < 5.00 | pIC50 (second compound 0.316 µM): < 5.00 | pIC50 (second compound 1 µM): < 5.00 | viability, T/C (second compound 0.00316 µM, first compound 0.0316 µM): 81.6% | viability, T/C (second compound 0.00316 µM, first compound 0.1 µM): 98.1% | viability, T/C (second compound 0.00316 µM, first compound 0.316 µM): 94.1% | viability, T/C (second compound 0.00316 µM, first compound 1 µM): 102% | viability, T/C (second compound 0.00316 µM, first compound 3.16 µM): 110% | viability, T/C (second compound 0.00316 µM, first compound 10 µM): 128% | viability, T/C (second compound 0.01 µM, first compound 0.0316 µM): 81.2% | viability, T/C (second compound 0.01 µM, first compound 0.1 µM): 101% | viability, T/C (second compound 0.01 µM, first compound 0.316 µM): 84% | viability, T/C (second compound 0.01 µM, first compound 1 µM): 112% | viability, T/C (second compound 0.01 µM, first compound 3.16 µM): 114% | viability, T/C (second compound 0.01 µM, first compound 10 µM): 145% | viability, T/C (second compound 0.0316 µM, first compound 0.0316 µM): 96.1% | viability, T/C (second compound 0.0316 µM, first compound 0.1 µM): 69.1% | viability, T/C (second compound 0.0316 µM, first compound 0.316 µM): 127% | viability, T/C (second compound 0.0316 µM, first compound 1 µM): 109% | viability, T/C (second compound 0.0316 µM, first compound 3.16 µM): 125% | viability, T/C (second compound 0.0316 µM, first compound 10 µM): 185% | viability, T/C (second compound 0.1 µM, first compound 0.0316 µM): 101% | viability, T/C (second compound 0.1 µM, first compound 0.1 µM): 92.7% | viability, T/C (second compound 0.1 µM, first compound 0.316 µM): 117% | viability, T/C (second compound 0.1 µM, first compound 1 µM): 107% | viability, T/C (second compound 0.1 µM, first compound 3.16 µM): 127% | viability, T/C (second compound 0.1 µM, first compound 10 µM): 161% | viability, T/C (second compound 0.316 µM, first compound 0.0316 µM): 73% | viability, T/C (second compound 0.316 µM, first compound 0.1 µM): 79.5% | viability, T/C (second compound 0.316 µM, first compound 0.316 µM): 113% | viability, T/C (second compound 0.316 µM, first compound 1 µM): 106% | viability, T/C (second compound 0.316 µM, first compound 3.16 µM): 115% | viability, T/C (second compound 0.316 µM, first compound 10 µM): 148% | viability, T/C (second compound 1 µM, first compound 0.0316 µM): 98.4% | viability, T/C (second compound 1 µM, first compound 0.1 µM): 99.9% | viability, T/C (second compound 1 µM, first compound 0.316 µM): 102% | viability, T/C (second compound 1 µM, first compound 1 µM): 79% | viability, T/C (second compound 1 µM, first compound 3.16 µM): 143% | viability, T/C (second compound 1 µM, first compound 10 µM): 154%

O=C(c1ccc(F)c(F)c1Nc1ccc(I)cc1F)N1CC(O)([C@@H]2CCCCN2)C1 + CCN1C(C(=O)NC23CCC(C(=O)O)(CC2)CC3)C(c2cccc(Cl)c2F)C2(C(=O)Nc3cc(Cl)ccc32)C12CCCCC2
pIC50 (second compound 0.03 µM): 6.33 | pIC50 (second compound 0.0949 µM): 6.49 | pIC50 (second compound 0.3 µM): 6.55 | pIC50 (second compound 0.949 µM): 6.61 | pIC50 (second compound 3 µM): 6.86 | viability, T/C [1]: 87.4% | viability, T/C [2]: 65% | viability, T/C [3]: 72.2% | viability, T/C [4]: 95.9% | viability, T/C (second compound 0.03 µM, first compound 0.316 µM): 65.9% | viability, T/C (second compound 0.03 µM, first compound 1 µM): 18.9% | viability, T/C [5]: 95.4% | viability, T/C [6]: 78% | viability, T/C [7]: 87.6% | viability, T/C [8]: 84.9% | viability, T/C (second compound 0.0949 µM, first compound 0.316 µM): 50.6% | viability, T/C (second compound 0.0949 µM, first compound 1 µM): 18.7% | viability, T/C [9]: 90.9% | viability, T/C [10]: 76% | viability, T/C [11]: 90.9% | viability, T/C [12]: 91.8% | viability, T/C (second compound 0.3 µM, first compound 0.316 µM): 45.7% | viability, T/C (second compound 0.3 µM, first compound 1 µM): 17.7% | viability, T/C [13]: 88.9% | viability, T/C [14]: 93.6% | viability, T/C [15]: 82.2% | viability, T/C [16]: 81.5% | viability, T/C (second compound 0.949 µM, first compound 0.316 µM): 41.4% | viability, T/C (second compound 0.949 µM, first compound 1 µM): 17.3% | viability, T/C [17]: 77.4% | viability, T/C [18]: 82.9% | viability, T/C [19]: 68.3% | viability, T/C [20]: 58.6% | viability, T/C (second compound 3 µM, first compound 0.316 µM): 32.1% | viability, T/C (second compound 3 µM, first compound 1 µM): 10.7%

NC1CCC(NC2CC2c2ccccc2)CC1 (configuration not stated) + CCN1C(C(=O)NC23CCC(C(=O)O)(CC2)CC3)C(c2cccc(Cl)c2F)C2(C(=O)Nc3cc(Cl)ccc32)C12CCCCC2
pIC50 (second compound 0.03 µM): < 7.00 | pIC50 (second compound 0.0949 µM): < 7.00 | pIC50 (second compound 0.3 µM): < 7.00 | pIC50 (second compound 0.949 µM): < 7.00 | pIC50 (second compound 3 µM): < 7.00 | viability, T/C (second compound 0.03 µM, first compound 0.000316 µM): 79.1% | viability, T/C (second compound 0.03 µM, first compound 0.001 µM): 72.2% | viability, T/C [1]: 67.4% | viability, T/C [2]: 74.8% | viability, T/C [3]: 87% | viability, T/C [4]: 82.7% | viability, T/C (second compound 0.0949 µM, first compound 0.000316 µM): 98.7% | viability, T/C (second compound 0.0949 µM, first compound 0.001 µM): 87.6% | viability, T/C [5]: 92.6% | viability, T/C [6]: 91.5% | viability, T/C [7]: 63.7% | viability, T/C [8]: 82.7% | viability, T/C (second compound 0.3 µM, first compound 0.000316 µM): 81.7% | viability, T/C (second compound 0.3 µM, first compound 0.001 µM): 85.7% | viability, T/C [9]: 83.8% | viability, T/C [10]: 90.8% | viability, T/C [11]: 69.5% | viability, T/C [12]: 75% | viability, T/C (second compound 0.949 µM, first compound 0.000316 µM): 87.9% | viability, T/C (second compound 0.949 µM, first compound 0.001 µM): 87.7% | viability, T/C [13]: 98% | viability, T/C [14]: 74.2% | viability, T/C [15]: 72.5% | viability, T/C [16]: 66.7% | viability, T/C (second compound 3 µM, first compound 0.000316 µM): 83.9% | viability, T/C (second compound 3 µM, first compound 0.001 µM): 81.4% | viability, T/C [17]: 60.3% | viability, T/C [18]: 59.8% | viability, T/C [19]: 68.9% | viability, T/C [20]: 65.8%
